Key:
Assay type in all cases: cell-based
Klebsiella pneumonia = test: MIC against Gram-negative bacteria: Klebsiella pneumonia; settings: K. pneumonia; 10 h cultivation at 37° C.; 5×10^5 CFU/mL
How it was run: (§1)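 Antibacterial activity of purified human EGF domain proteins: two-fold concentration series, triplicate wells, LB broth, 5×10^5 CFU/mL bacteria, 37° C shaking incubation. The lowest concentration without growth defines the MIC.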

Citrobacter diversus = test: MIC against Gram-negative bacteria: Citrobacter diversus; settings: C. diversus; 10 h cultivation at 37° C.; 5×10^5 CFU/mL
How it was run: as §1

Enterobacter cloacae = test: MIC against Gram-negative bacteria: Enterobacter cloacae; settings: E. cloacae; 10 h cultivation at 37° C.; 5×10^5 CFU/mL
How it was run: as §1

Proteus mirabilis = test: MIC against Gram-negative bacteria: Proteus mirabilis; settings: P. mirabilis; 10 h cultivation at 37° C.; 5×10^5 CFU/mL
How it was run: as §1

Aeromonas hydrophila = test: MIC against Gram-negative bacteria: Aeromonas hydrophila; settings: A. hydrophila; 10 h cultivation at 37° C.; 5×10^5 CFU/mL
How it was run: as §1

E. coli DH5α = test: Antibacterial activity: MIC and growth curve against E. coli DH5α in 96-well plate; settings: minimal inhibitory concentration against E. coli DH5α; 96-well plate, 5×10^5 CFU/mL, 37° C., judged after 8 h
How it was run: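 Log-phase DH5α (OD600 about 0.5, 37° C, 185 rpm in LB) was pelleted, resuspended in fresh LB and seeded at 5×10^5 CFU/mL with recombinant protein at 50, 25 and 12.5 μg/mL (two-fold series), in triplicate. Plates were shaken at 175 rpm, 37° C, and OD600 was read every 30 min. MIC was the lowest concentration with no growth.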

Serratia marcescens = test: MIC against Gram-negative bacteria: Serratia marcescens; settings: S. marcescens; 10 h cultivation at 37° C.; 5×10^5 CFU/mL
How it was run: as §1

E. coli BL21 = test: MIC against Gram-negative bacteria: E. coli BL21; settings: E. coli BL21; 10 h cultivation at 37° C.; 5×10^5 CFU/mL
How it was run: as §1

Proteus vulgaris = test: MIC against Gram-negative bacteria: Proteus vulgaris; settings: P. vulgaris; 10 h cultivation at 37° C.; 5×10^5 CFU/mL
How it was run: as §1

Pseudomonas aeruginosa = test: MIC against Gram-negative bacteria: Pseudomonas aeruginosa; settings: P. aeruginosa; 10 h cultivation at 37° C.; 5×10^5 CFU/mL
How it was run: as §1

Moraxella catarrhalis = test: MIC against Gram-negative bacteria: Moraxella catarrhalis; settings: M. catarrhalis; 10 h cultivation at 37° C.; 5×10^5 CFU/mL
How it was run: as §1

Substance	MIC (μg/mL) K. pneumonia (Klebsiella pneumonia) [µg/mL]	MIC (μg/mL) C. diversus (Citrobacter diversus) [µg/mL]	MIC (μg/mL) E. cloacae (Enterobacter cloacae) [µg/mL]	MIC (μg/mL) P. mirabilis (Proteus mirabilis) [µg/mL]	MIC (μg/mL) A. hydrophila (Aeromonas hydrophila) [µg/mL]	MIC (E. coli DH5α) [µg/mL]	MIC (μg/mL) S. marcescens (Serratia marcescens) [µg/mL]	MIC (μg/mL) E. coli BL21 (E. coli BL21) [µg/mL]	MIC (μg/mL) P. vulgaris (Proteus vulgaris) [µg/mL]	MIC (μg/mL) P. aeruginosa (Pseudomonas aeruginosa) [µg/mL]	MIC (μg/mL) M. catarrhalis (Moraxella catarrhalis) [µg/mL]
PRT751 (LCATGDHDCEQVCISSPGSYTCACHEGFTLNSDGKTCN; listed as Homo sapiens)	12.5	12.5	50	50	25	12.5	12.5	25	25	50	25
PRT752 (TAHMCSTLEHNCAHFCINIPGSYVCRCKQGYILNSDQTTCR; listed as Homo sapiens)	12.5	12.5	12.5	50	50	50	12.5	25	25	12.5	25
PRT753 (RKDVCKSTHHGCEHICVNNGNSYICKCSEGFVLAEDGRRCK; listed as Homo sapiens)	50	12.5	12.5	12.5	50	25	50	50	25	12.5	50
PRT754 (IQDLCAMEDHNCEQLCVNVPGSFVCQCYSGYALAEDGKRCV; listed as Homo sapiens)	25	50	12.5	12.5	25	25	25	12.5	50	50	25
PRT755 (AVDYCASENHGCEHECVNADGSYLCQCHEGFALNPDKKTCT; listed as Homo sapiens)	50	12.5	12.5	12.5	50	12.5	25	50	12.5	12.5	50
PRT756 (KIDYCASSNHGCQHECVNTDDSYSCHCLKGFTLNPDKKTCR; listed as Homo sapiens)	50	12.5	12.5	12.5	50	12.5	12.5	25	50	12.5	50
PRT757 (RINYCALNKPGCEHECVNMEESYYCRCHRGYTLDPNGKTCS; listed as Homo sapiens)	12.5	12.5	25	12.5	50	50	50	12.5	25	50	50
PRT758 (RVDHCAQQDHGCEQLCLNTEDSFVCQCSEGFLINEDLKTCS; listed as Homo sapiens)	50	25	25	25	50	12.5	12.5	25	12.5	50	12.5
PRT759 (RVDYCLLSDHGCEYSCVNMDRSFACQCPEGHVLRSDGKTCA; listed as Homo sapiens)	12.5	12.5	12.5	12.5	12.5	25	25	12.5	12.5	25	25
PRT760 (KLDSCALGDHGCEHSCVSSEDSFVCQCFEGYILREDGKTCR; listed as Homo sapiens)	50	12.5	12.5	12.5	50	50	12.5	25	50	12.5	50
PRT761 (RKDVCQAIDHGCEHICVNSDDSYTCECLEGFRLAEDGKRCR; listed as Homo sapiens)	12.5	12.5	50	50	25	50	25	12.5	12.5	50	25
PRT762 (ALDPCVLGTHQCQHVCISDGEGKHHCECSQGYTLNADKKTCS; listed as Homo sapiens)	12.5	50	50	50	12.5	50	12.5	12.5	25	50	12.5
PRT763 (ALDRCALNTHGCEHICVNDRSGSYHCECYEGYTLNEDRKTCS; listed as Homo sapiens)	25	12.5	12.5	12.5	25	25	25	50	50	12.5	12.5
PRT764 (AQDKCALGTHGCQHICVNDRTGSHHCECYEGYTLNADKKTCS; listed as Homo sapiens)	100	50	50	25	12.5	12.5	50	25	25	50	12.5
PRT765 (VRDKCALGSHGCQHICVSDGAASYHCDCYPGYTLNEDKKTCS; listed as Homo sapiens)	50	12.5	12.5	12.5	12.5	12.5	12.5	50	12.5	12.5	12.5

Source: patent US9833497B2, “Human originated EGF domain proteins and use of the same” (CHENGDU SOURCEBIO LIMITED-LIABILITY COMPANY, priority 2013, dated 2017)
